Data taken from patent publication US5519008A, “Derivatives of triterpenoid acids as inhibitors of cell-adhesion molecules ELAM-1 (E-selectin) and LECAM-1 (L-selectin)” (Glycomed Incorporated, priority 1992, dated 1996).

Tests used:
[1] = tested on: arachidonic acid (AA), murine skin inflammation; experiment: arachidonic acid (AA) murine skin (ear) inflammation model; format: in vivo; details: 10 μl of 100mg/ml solution applied to the ear immediately after AA; 6mm ear disk weighed 90 minutes later; average of 6 experiments
Protocol: For comparison, glycyrrhetinic acid was also tested. […] 10 μl of each compound was applied to the ear. […] 90 minutes later a 6mm disk of each ear was removed, and weighed. […] The results were the average of 6 experiments.

[2] = literature statement, Baren et al., J. Med. Chem. 17(2) (1974) 184-191; cited from earlier work

Compound	reduction of the % maximal inflammatory response caused by AA alone [1]	aldosterone (DCA)-like activity [2]
3β-O-(α-L-fucopyranosyl)-18β-olean-12-en-30-oic Acid [3-0-fucoside-18-β glycyrrhetinic acid]	about 60%	–
CC1(C)[C@@H](O)CC[C@]2(C)[C@H]3C(=O)C=C4[C@@H]5C[C@@](C)(C(=O)O)CC[C@]5(C)CC[C@@]4(C)[C@]3(C)CC[C@@H]12 [glycyrrhetinic acid]	about 60%	–
CC1(C)[C@@H](O)CC[C@]2(C)[C@H]3CC=C4[C@@H]5C[C@@](C)(C(=O)O)CC[C@]5(C)CC[C@@]4(C)[C@]3(C)CC[C@@H]12 [11-deoxoglycyrrhetinic acid]	–	does not substantially show the DCA activity
